Among the test systems are A549 NSCLC; K-562 leukemia; MCF7 breast; MDA-MB-435; NCI-H226 lung; SF-268 CNS; SK-MEL-2 melanoma; SW-620 colon; UACC-257 melanoma; UO-31 renal.
Holding throughout (experiment): NCI tumour cell line growth inhibition, 48 h

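96-well plates; 48 h exposure; 5 concentrations. Endpoints by linear interpolation between flanking doses. Not reached: highest tested concentration assigned. Abbreviation: GI50, concentration required for 50% inhibition of growth. TGI is the concentration that stops growth completely.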 Where only a bound is given, the exact number is not on record here.

In the case of `COc1cnc2c(c1)C(=O)c1c-2n(CCCNCCO)c(=O)c2ccncc12`, the GI50 with A549 NSCLC is 1.99 µM; in the assay on K-562 leukemia, 0.856 µM; in the assay on MCF7 breast, 0.303 µM; in the assay on MDA-MB-435 it was 1.31 µM; with NCI-H226 lung, 0.601 µM; with SF-268 CNS, 1.28 µM. The GI50 was 1.81 µM with SK-MEL-2 melanoma, 0.52 µM with SW-620 colon, 2.18 µM in the assay on UACC-257 melanoma and 1.3 µM with UO-31 renal. Besides, the TGI came to 9.38 µM in the assay with A549 NSCLC; 13 µM with K-562 leukemia; 11.3 µM with MCF7 breast; 2.98 µM in the assay with MDA-MB-435; 3.65 µM with NCI-H226 lung; 9.26 µM in the assay with SF-268 CNS. Also, the TGI amounted to 4.75 µM in the assay with SK-MEL-2 melanoma, 12.4 µM in the assay with SW-620 colon, 9.02 µM in the assay on UACC-257 melanoma and 10.1 µM in the assay with UO-31 renal.

Consider `O=c1c(-c2ccccc2)c(SCCO)n(-c2ccccc2)c(=S)n1-c1ccccc1`, for which the TGI in the assay on A549 NSCLC, with K-562 leukemia, with MCF7 breast, in the assay with MDA-MB-435, in the assay with NCI-H226 lung and in the assay on SF-268 CNS was > 100 µM throughout. For the same molecule, the TGI with SK-MEL-2 melanoma, in the assay on SW-620 colon, with UACC-257 melanoma and in the assay with UO-31 renal was > 100 µM throughout.

For `O=C(Nc1ccccc1C(=O)NCc1ccccc1)/C(=C/c1ccccc1)NC(=O)c1ccccc1`, the TGI in the assay with A549 NSCLC, in the assay on K-562 leukemia, in the assay on MCF7 breast, in the assay with MDA-MB-435, in the assay on NCI-H226 lung and in the assay with SF-268 CNS was > 100 µM throughout. The TGI in the assay with SK-MEL-2 melanoma, with SW-620 colon, with UACC-257 melanoma and in the assay with UO-31 renal was > 100 µM throughout.

Turning to `Nc1nc(Cl)cc(NC23CC4CC(CC(C4)C2)C3)n1`, the TGI with A549 NSCLC, in the assay on K-562 leukemia, with MCF7 breast, in the assay on MDA-MB-435, in the assay on NCI-H226 lung and with SF-268 CNS was > 100 µM throughout. Moreover, the TGI with SK-MEL-2 melanoma was 71.4 µM; in the assay with SW-620 colon it was > 100 µM; with UACC-257 melanoma, > 100 µM; with UO-31 renal it was > 100 µM.

Turning to `CC(=O)NC1C(OCc2ccccc2)OC(CO)C(O)C1OC(C)C(=O)NC(C(=O)NC(CCC(=O)NCCCCNc1c2ccccc2nc2cccc([N+](=O)[O-])c12)C(N)=O)C(C)C` (stereo not given), the TGI in the assay with A549 NSCLC was 7.77 µM; in the assay on K-562 leukemia, > 100 µM; in the assay on MCF7 breast, > 44 µM; in the assay on MDA-MB-435, 2.84 µM; with NCI-H226 lung, 12.3 µM; in the assay with SF-268 CNS it was 13.1 µM. Moreover, the TGI is 12.5 µM in the assay with SK-MEL-2 melanoma, > 32.9 µM in the assay on SW-620 colon, 15.9 µM in the assay on UACC-257 melanoma and 13.4 µM in the assay on UO-31 renal.

Consider `C=C=C(CC(CC(=C)Br)(C(=O)OC)C(=O)OC)S(=O)(=O)c1ccccc1`, for which the TGI was 10.6 µM in the assay with A549 NSCLC; > 100 µM in the assay on K-562 leukemia; 16.4 µM with MCF7 breast; 4.17 µM in the assay with MDA-MB-435; 12.2 µM in the assay with NCI-H226 lung; 7.45 µM in the assay on SF-268 CNS. In addition, the TGI turned out to be 8.22 µM in the assay on SK-MEL-2 melanoma, 2.99 µM with SW-620 colon, 5.88 µM in the assay with UACC-257 melanoma and 3.69 µM in the assay on UO-31 renal.

For the molecule `c1ccc(/C(=N/Nc2ccncn2)c2ccccn2)cc1`, the TGI in the assay on A549 NSCLC is > 100 µM; in the assay with K-562 leukemia, > 100 µM; in the assay with MCF7 breast it was > 100 µM; in the assay with MDA-MB-435, > 100 µM; in the assay on NCI-H226 lung, 96.2 µM; with SF-268 CNS it was 50.9 µM. For the same molecule, the TGI is > 100 µM in the assay with SK-MEL-2 melanoma, > 100 µM with SW-620 colon, > 100 µM with UACC-257 melanoma and 67.3 µM with UO-31 renal.

`Cc1nc(N)c(N2CCN(CN)CC2)c(=O)[nH]1`: the TGI with A549 NSCLC, in the assay with K-562 leukemia, in the assay with MCF7 breast, in the assay on MDA-MB-435, in the assay with NCI-H226 lung and in the assay on SF-268 CNS was > 100 µM each time. Further, the TGI in the assay on SK-MEL-2 melanoma, with SW-620 colon, in the assay on UACC-257 melanoma and in the assay with UO-31 renal was > 100 µM each time.

For the molecule `CN(C)CCCNc1ccc2nnn3c4ccc(O)cc4c(=O)c1c23`, the TGI with A549 NSCLC is 16.9 µM; in the assay with K-562 leukemia, > 57.2 µM; in the assay on MCF7 breast, 24.8 µM; with MDA-MB-435, 20.9 µM; in the assay on NCI-H226 lung, 17.3 µM; with SF-268 CNS, 16.3 µM. Moreover, the TGI came out at 26.3 µM with SK-MEL-2 melanoma, 17.2 µM with SW-620 colon, 29.8 µM with UACC-257 melanoma and 9.79 µM in the assay on UO-31 renal.

Regarding `CCOP(=O)(OCC)/C(=C/c1cccs1)CC(C)=O`, the TGI with A549 NSCLC, in the assay on K-562 leukemia, with MCF7 breast, in the assay on MDA-MB-435, in the assay with NCI-H226 lung and in the assay on SF-268 CNS was > 100 µM in each case. Moreover, the TGI in the assay with SK-MEL-2 melanoma, with SW-620 colon, in the assay with UACC-257 melanoma and in the assay on UO-31 renal was > 100 µM throughout.

Turning to `O=C(O)COc1cc(-c2ccccc2)nc2cc(F)ccc12`, the TGI in the assay on A549 NSCLC, in the assay with K-562 leukemia, in the assay with MCF7 breast, in the assay with MDA-MB-435, in the assay with NCI-H226 lung and in the assay on SF-268 CNS was > 100 µM in each case. For the same molecule, the TGI in the assay with SK-MEL-2 melanoma, with SW-620 colon, in the assay on UACC-257 melanoma and in the assay on UO-31 renal was > 100 µM each time.

Take `Nc1ccc(S(=O)(=O)Nc2nc3ccccc3nc2N2CCCCCC2)cc1`: the TGI in the assay with A549 NSCLC is > 100 µM; in the assay on K-562 leukemia, 52 µM; with MCF7 breast, > 100 µM; with MDA-MB-435, 41.1 µM; with NCI-H226 lung, > 100 µM; in the assay with SF-268 CNS, > 100 µM. Moreover, the TGI in the assay on SK-MEL-2 melanoma is 40.8 µM; in the assay with SW-620 colon it was 54.1 µM; in the assay on UACC-257 melanoma it was > 100 µM; in the assay with UO-31 renal it was 40.8 µM.

On to `CCOC(=O)c1cc2c([N+](=O)[O-])c(N)ccc2s1`, for which the TGI in the assay on A549 NSCLC, in the assay on K-562 leukemia, in the assay on MCF7 breast, in the assay on MDA-MB-435, with NCI-H226 lung and in the assay on SF-268 CNS was > 100 µM each time. The TGI in the assay with SK-MEL-2 melanoma, in the assay on SW-620 colon, in the assay on UACC-257 melanoma and with UO-31 renal was > 100 µM throughout.

With `N#Cc1cc2c(n(C3OC(CO)C(O)C(O)C3O)c1=S)CCCCCC2` (stereo not given), the TGI in the assay with A549 NSCLC, in the assay with K-562 leukemia, in the assay with MCF7 breast, in the assay on MDA-MB-435, in the assay with NCI-H226 lung and in the assay with SF-268 CNS was > 100 µM in each case. Besides, the TGI in the assay on SK-MEL-2 melanoma, in the assay on SW-620 colon, in the assay with UACC-257 melanoma and in the assay with UO-31 renal was > 100 µM each time.

On to `CC(C)C(C/C=C1\CC(CO)(COC(=O)C2CCCCC2)OC1=O)C(C)C` (stereo not given), for which the TGI in the assay with A549 NSCLC is 32 µM; in the assay on K-562 leukemia it was 55.6 µM; in the assay on MCF7 breast, 39 µM; with MDA-MB-435 it was > 100 µM; in the assay with NCI-H226 lung, 38.3 µM; in the assay with SF-268 CNS, 33.5 µM. Also, the TGI in the assay with SK-MEL-2 melanoma was > 100 µM; in the assay with SW-620 colon, 40.5 µM; in the assay with UACC-257 melanoma it was 84.1 µM; with UO-31 renal, 32.1 µM.

As to `Cc1ccc(S(=O)(=O)Nc2nnc(S(N)(=O)=O)s2)cc1`, the TGI with A549 NSCLC, with K-562 leukemia, with MCF7 breast, in the assay on MDA-MB-435, in the assay with NCI-H226 lung and in the assay on SF-268 CNS was > 100 µM in each case. In addition, the TGI with SK-MEL-2 melanoma, in the assay with SW-620 colon, with UACC-257 melanoma and in the assay with UO-31 renal was > 100 µM each time.

For `O=C(CCN1CCN2c3ccccc3CCC2C1)c1ccc(F)cc1` (stereo not given), the TGI is > 100 µM with A549 NSCLC; > 100 µM in the assay on K-562 leukemia; 51.3 µM in the assay on MCF7 breast; 47.4 µM in the assay on MDA-MB-435; 98.6 µM with NCI-H226 lung; > 100 µM in the assay on SF-268 CNS. Also, the TGI with SK-MEL-2 melanoma was 53.3 µM; with SW-620 colon, > 100 µM; in the assay with UACC-257 melanoma, 97.1 µM; in the assay on UO-31 renal, 40.8 µM.

For the molecule `NNC(=O)C1(NC(=O)c2ccccc2)C(c2ccccc2)C(c2ccccc2)=NN1c1ccccc1` (stereo not given), the TGI with A549 NSCLC, with K-562 leukemia, with MCF7 breast, in the assay with MDA-MB-435, in the assay on NCI-H226 lung and in the assay with SF-268 CNS was > 100 µM throughout. Further, the TGI in the assay with SK-MEL-2 melanoma, in the assay with SW-620 colon, in the assay with UACC-257 melanoma and in the assay on UO-31 renal was > 100 µM each time.

Take `O=C1CC(=O)n2cnc3cccc(c32)N1`: the TGI in the assay with A549 NSCLC, in the assay with K-562 leukemia, in the assay on MCF7 breast, in the assay on MDA-MB-435, in the assay on NCI-H226 lung and with SF-268 CNS was > 100 µM throughout. For the same molecule, the TGI with SK-MEL-2 melanoma, in the assay with SW-620 colon, in the assay with UACC-257 melanoma and in the assay on UO-31 renal was > 100 µM each time.

Values taken from PubChem BioAssay (NCI).
